Converted amounts (≈) assume the structure as drawn. Read-outs that look alike come from different tables or passages of the source.
Legend:
[1] = test system: Methicillin Resistant Staphylococcus aureus strain USA 300, NRS384; experiment: Minimum inhibitory concentration, broth micro-dilution (CLSI), S. aureus; format: cell-based; conditions: Staphylococcus aureus, MRSA / NRS 384 / USA300, 22 h, 35° C., 22 hours
Summary of the method: (§1)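 CLSI broth microdilution in cation-adjusted Mueller Hinton Broth with 0.002% Tween-80; inoculum final OD600 0.0005, 22 hours at 35° C. Ten 2-fold dilutions starting at 4 μg/mL (protocol 2) or 0.5 μg/mL (protocol 3).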

[2] = test system: Escherichia coli MC4100 harboring the IMP4213 (E. coli IMP); experiment: microbe, parasite or virus in culture; format: cell-based; conditions: Escherichia coli, 22 h, read-out: MIC (μg/mL) E. coli IMP, E. coli MC4100 IMP4213, increased outer-membrane permeability; 35° C., 22 hours
Summary of the method: as §1

[3] = test system: Escherichia coli ATCC 25922; experiment: Minimum inhibitory concentration, broth micro-dilution (CLSI), E. coli; format: cell-based; conditions: Escherichia coli, ATCC25922, 22 h, 35° C., 22 hours
[4] = biological target: T1, SpsB (Staphylococcus aureus signal peptidase) (Staphylococcus aureus, UniProt P0A070); experiment: cell-based; format: biochemical; conditions: SpsB IC50, whole-cell S. aureus (USA300 background, overexpressing SpsB) as SpsB source; fluorogenic peptide substrate, kinetic read 30 min
T1 construct: This assay uses a suspension of Staphylococcus aureus cells as a source of SpsB instead of recombinant SpsB protein; endogenous in cells; host or cells: S. aureus, USA300 background, overexpressing SpsB (whole-cell suspension from frozen pellets)
T1 sequence (P0A070 whole entry): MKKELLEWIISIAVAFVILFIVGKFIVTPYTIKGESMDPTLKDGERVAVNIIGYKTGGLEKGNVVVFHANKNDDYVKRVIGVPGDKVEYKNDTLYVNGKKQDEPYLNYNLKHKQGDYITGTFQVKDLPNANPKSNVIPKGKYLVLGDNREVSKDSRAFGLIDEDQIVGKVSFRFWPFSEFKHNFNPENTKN
Summary of the method: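 Whole S. aureus cells (USA300, overexpressing SpsB) in PBS with MgCl2, CaCl2 and 0.1% Tween-80 served as enzyme source, mixed with 20 μM stock of (Dabcyl)βAla-KPAKAAE(Edans) substrate before use. Fluorescence (ex 340/em 490 nm) read kinetically over 30 min. IC50 from reaction rate versus 11-point inhibitor concentration.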

[5] = read-out: MIC (μg/mL) S. aureus, MRSA USA 300 NRS384
[6] = read-out: MIC (μg/mL) E. coli, E. coli ATCC 25922
[7] = MRSA USA 300 NRS384, read-out: MIC (μg/mL) S. aureus
[8] = E. coli ATCC 25922, read-out: MIC (μg/mL) E. coli

C[C@@H]1NC(=O)[C@@H](N(C)C(=O)[C@H](CCN)NC(=O)/C=C/c2ccc(-c3ccc(Cl)cc3)cc2)c2ccc(OCCN)c(c2)-c2cc(ccc2OCCN)C[C@@H](C(=O)NCC#N)NC1=O [Compound 427]
MIC [1, 5]: 0.063 µg/mL (≈ 0.0717 µM)
MIC [2]: 0.047 µg/mL (≈ 0.0535 µM)
MIC [3, 6]: 1 µg/mL (≈ 1.14 µM)
IC50 [4]: 1.2 nM

CCCCc1ccc(/C=C/C(=O)N[C@@H](CCN)C(=O)N(C)[C@@H]2C(=O)N[C@@H](C)C(=O)N[C@H](C(=O)NCC#N)Cc3ccc(OCCN)c(c3)-c3cc2ccc3OCCN)cc1 [Compound 428]
MIC [1, 7]: 0.094 µg/mL (≈ 0.114 µM)
MIC [2]: 0.023 µg/mL (≈ 0.0279 µM)
MIC [3, 8]: 1 µg/mL (≈ 1.21 µM)
IC50 [4]: 1.2 nM

Cc1cc(/C=C/c2ccccc2)ccc1C(=O)N[C@@H](CCN)C(=O)N(C)[C@@H]1C(=O)N[C@@H](C)C(=O)N[C@H](C(=O)NCC#N)Cc2ccc(OCCN)c(c2)-c2cc1ccc2OCCN [Compound 429]
MIC [1, 7]: 0.063 µg/mL (≈ 0.0734 µM)
MIC [2]: 0.0078 µg/mL (≈ 0.00909 µM)
MIC [3, 8]: 0.75 µg/mL (≈ 0.874 µM)
IC50 [4]: 0.81 nM

Cc1cc(C2CCCCC2)ccc1C(=O)N[C@@H](CCN)C(=O)N(C)[C@@H]1C(=O)N[C@@H](C)C(=O)N[C@H](C(=O)NCC#N)Cc2ccc(OCCN)c(c2)-c2cc1ccc2OCCN [Compound 431]
MIC [1, 7]: 0.063 µg/mL (≈ 0.0752 µM)
MIC [2]: 0.023 µg/mL (≈ 0.0274 µM)
MIC [3, 8]: 0.88 µg/mL (≈ 1.05 µM)
IC50 [4]: 0.77 nM

C[C@@H]1NC(=O)[C@@H](N(C)C(=O)[C@H](CCN)NC(=O)c2ccc(-c3ccc(C4CCCCC4)cc3)cc2)c2ccc(OCCN)c(c2)-c2cc(ccc2OCCN)C[C@@H](C(=O)NCC#N)NC1=O [Compound 432]
MIC [1, 5]: 0.094 µg/mL (≈ 0.104 µM)
MIC [2]: 0.016 µg/mL (≈ 0.0178 µM)
MIC [3, 6]: 0.13 µg/mL (≈ 0.144 µM)
IC50 [4]: 1.4 nM

CCC(C)c1ccc(C(=O)N[C@@H](CCN)C(=O)N(C)[C@@H]2C(=O)N[C@@H](C)C(=O)N[C@H](C(=O)NCC#N)Cc3ccc(OCCN)c(c3)-c3cc2ccc3OCCN)c(C)c1 (stereo partly drawn) [Compound 434]
MIC [1, 7]: 0.25 µg/mL (≈ 0.308 µM)
MIC [2]: 0.047 µg/mL (≈ 0.0579 µM)
MIC [3, 8]: 2 µg/mL (≈ 2.46 µM)
IC50 [4]: 1.5 nM

Cc1cc(C2CCCCCC2)ccc1C(=O)N[C@@H](CCN)C(=O)N(C)[C@@H]1C(=O)N[C@@H](C)C(=O)N[C@H](C(=O)NCC#N)Cc2ccc(OCCN)c(c2)-c2cc1ccc2OCCN [Compound 436]
MIC [1, 7]: 0.047 µg/mL (≈ 0.0552 µM)
MIC [2]: 0.0078 µg/mL (≈ 0.00915 µM)
MIC [3, 8]: 0.38 µg/mL (≈ 0.446 µM)
IC50 [4]: 0.78 nM

CCCCCCCc1cc(F)c(C(=O)N[C@@H](CCN)C(=O)N(C)[C@@H]2C(=O)N[C@@H](C)C(=O)N[C@H](C(=O)NCC#N)Cc3ccc(OCCN)c(c3)-c3cc2ccc3OCCN)c(Cl)c1 [Compound 437]
MIC [1, 7]: 0.063 µg/mL (≈ 0.0706 µM)
MIC [2]: 0.0078 µg/mL (≈ 0.00874 µM)
MIC [3, 8]: 0.25 µg/mL (≈ 0.28 µM)
IC50 [4]: 0.9 nM

CCCCCCCCc1cc(C)c(C(=O)N[C@@H](CCN)C(=O)N(C)[C@@H]2C(=O)N[C@@H](C)C(=O)N[C@H](C(=O)NCC#N)Cc3ccc(OCCN)c(c3)-c3cc2ccc3OCCN)s1 [Compound 438]
MIC [1, 7]: 0.063 µg/mL (≈ 0.0721 µM)
MIC [2]: 0.031 µg/mL (≈ 0.0355 µM)
MIC [3, 8]: 0.38 µg/mL (≈ 0.435 µM)
IC50 [4]: 0.78 nM

CCCCCCCOc1ccc(C(=O)N[C@@H](CCN)C(=O)N(C)[C@@H]2C(=O)N[C@@H](C)C(=O)N[C@H](C(=O)NCC#N)Cc3ccc(OCCN)c(c3)-c3cc2ccc3OCCN)c(C(F)F)c1 [Compound 442]
MIC [1, 7]: 0.063 µg/mL (≈ 0.0695 µM)
MIC [2]: 0.0078 µg/mL (≈ 0.00861 µM)
MIC [3, 8]: 0.19 µg/mL (≈ 0.21 µM)
IC50 [4]: 2.9 nM

Cc1nn(-c2ccc(CC(C)C)cc2)cc1C(=O)N[C@@H](CCN)C(=O)N(C)[C@@H]1C(=O)N[C@@H](C)C(=O)N[C@H](C(=O)NCC#N)Cc2ccc(OCCN)c(c2)-c2cc1ccc2OCCN [Compound 443]
MIC [1, 7]: 0.094 µg/mL (≈ 0.107 µM)
MIC [2]: 0.047 µg/mL (≈ 0.0535 µM)
MIC [3, 8]: 4 µg/mL (≈ 4.56 µM)
IC50 [4]: 0.9 nM

Cc1cc(-n2cc(CC(C)C)cn2)ccc1C(=O)N[C@@H](CCN)C(=O)N(C)[C@@H]1C(=O)N[C@@H](C)C(=O)N[C@H](C(=O)NCC#N)Cc2ccc(OCCN)c(c2)-c2cc1ccc2OCCN [Compound 445]
MIC [1, 7]: 0.094 µg/mL (≈ 0.107 µM)
MIC [2]: 0.016 µg/mL (≈ 0.0182 µM)
MIC [3, 8]: 1 µg/mL (≈ 1.14 µM)
IC50 [4]: 1 nM

CCCCCCCCc1ccc(C(=O)N[C@@H](CCN)C(=O)N(C)[C@@H]2C(=O)N[C@@H](C)C(=O)N[C@H](C(=O)NCC#N)Cc3ccc(OCCN)c(c3)-c3cc2ccc3OCCN)c(CC(N)=O)c1 [Compound 448]
MIC [1, 5]: 0.023 µg/mL (≈ 0.0252 µM)
MIC [2]: 0.016 µg/mL (≈ 0.0176 µM)
MIC [3, 6]: 0.75 µg/mL (≈ 0.823 µM)
IC50 [4]: 0.93 nM

CCCCCCCCc1ccc(C(=O)N[C@@H](CCN)C(=O)N(C)[C@@H]2C(=O)N[C@@H](C)C(=O)N[C@H](C(=O)NCC#N)Cc3ccc(OCCN)c(c3)-c3cc2ccc3OCCN)c(/C=C/C(N)=O)c1 [Compound 450]
MIC [1, 7]: 0.13 µg/mL (≈ 0.141 µM)
MIC [2]: 0.063 µg/mL (≈ 0.0682 µM)
MIC [3, 8]: 16 µg/mL (≈ 17.3 µM)
IC50 [4]: 0.66 nM

CCCCCCCCCCCC(=O)N[C@@H](CC#N)C(=O)N(C)[C@@H]1C(=O)N[C@@H](C)C(=O)N[C@H](C(=O)NCC#N)Cc2ccc(OCCN)c(c2)-c2cc1ccc2OCCN [Compound 453]
MIC [1, 5]: 0.13 µg/mL (≈ 0.159 µM)
MIC [2]: 0.13 µg/mL (≈ 0.159 µM)
MIC [3, 6]: 16 µg/mL (≈ 19.6 µM)
IC50 [4]: 2.3 nM

CCCCCCCCCCCC(=O)N[C@@H](CCn1cncn1)C(=O)N(C)[C@@H]1C(=O)N[C@@H](C)C(=O)N[C@H](C(=O)NCC#N)Cc2ccc(OCCN)c(c2)-c2cc1ccc2OCCN [Compound 454]
MIC [1, 7]: 0.13 µg/mL (≈ 0.149 µM)
MIC [2]: 0.13 µg/mL (≈ 0.149 µM)
MIC [3, 8]: 32 µg/mL (≈ 36.7 µM)
IC50 [4]: 1.8 nM

CCCCCCCCc1ccc(C(=O)N[C@@H](CCCN)C(=O)N(C)[C@@H]2C(=O)N[C@@H](C)C(=O)N[C@H](C(=O)NCC#N)Cc3ccc(OCCCN)c(c3)-c3cc2ccc3OCCCN)cc1 [Compound 457]
MIC [1, 7]: 0.047 µg/mL (≈ 0.0524 µM)
MIC [2]: 0.0078 µg/mL (≈ 0.0087 µM)
MIC [3, 8]: 0.25 µg/mL (≈ 0.279 µM)
IC50 [4]: 0.64 nM

CCCCCCCCCCCCCC(=O)N(C)[C@@H]1C(=O)N[C@@H](C)C(=O)N[C@H](C(=O)NCC#N)Cc2ccc(OCCN(C)C)c(c2)-c2cc1ccc2OCCN(C)C [Compound 460]
MIC [1, 7]: 2 µg/mL (≈ 2.49 µM)
MIC [2]: 1.5 µg/mL (≈ 1.87 µM)
MIC [3, 8]: 16 µg/mL (≈ 19.9 µM)
IC50 [4]: 14 nM

C[C@@H]1NC(=O)[C@@H](N(C)C(=O)CCNCc2ccc(-c3ccc(Cl)cc3)cc2)c2ccc(OCCN)c(c2)-c2cc(ccc2OCCN)C[C@@H](C(=O)NCC#N)NC1=O [Compound 461]
MIC [1, 7]: 0.063 µg/mL (≈ 0.0778 µM)
MIC [2]: 4 µg/mL (≈ 4.94 µM)
MIC [3, 8]: > 64 µg/mL
IC50 [4]: 0.74 nM

CCCCCc1ccc(CNCCC(=O)N(C)[C@@H]2C(=O)N[C@@H](C)C(=O)N[C@H](C(=O)NCC#N)Cc3ccc(OCCN)c(c3)-c3cc2ccc3OCCN)c(C)c1 [Compound 462]
MIC [1, 7]: 0.094 µg/mL (≈ 0.12 µM)
MIC [2]: 4 µg/mL (≈ 5.11 µM)
MIC [3, 8]: 64 µg/mL (≈ 81.7 µM)
IC50 [4]: 0.81 nM

CCCCCCCCCC(=O)NCC(=O)N(C)[C@@H]1C(=O)N[C@@H](C)C(=O)N[C@H](C(=O)NCC#N)Cc2ccc(OCCN)c(c2)-c2cc1ccc2OCCN [Compound 463]
MIC [1, 7]: 0.5 µg/mL (≈ 0.668 µM)
MIC [2]: 0.5 µg/mL (≈ 0.668 µM)
MIC [3, 8]: > 64 µg/mL
IC50 [4]: 3.2 nM

CCCCCCCCCC(=O)NCCC(=O)N(C)[C@@H]1C(=O)N[C@@H](C)C(=O)N[C@H](C(=O)NCC#N)Cc2ccc(OCCN)c(c2)-c2cc1ccc2OCCN [Compound 464]
MIC [1, 7]: 1 µg/mL (≈ 1.31 µM)
MIC [2]: > 4 µg/mL
MIC [3, 8]: > 64 µg/mL
IC50 [4]: 6 nM

CCCCCCCCCCCCCC(=O)N[C@@H](CC)C(=O)N(C)[C@@H]1C(=O)N[C@@H](C)C(=O)N[C@H](C(=O)NCC#N)Cc2ccc(OCCN)c(c2)-c2cc1ccc2OCCN [Compound 465]
MIC [1, 7]: 0.094 µg/mL (≈ 0.113 µM)
MIC [2]: 0.19 µg/mL (≈ 0.228 µM)
MIC [3, 8]: 4 µg/mL (≈ 4.8 µM)
IC50 [4]: 1.6 nM

CCCCCCCCCCCC(=O)N[C@@H](CCCCN)C(=O)N(C)[C@@H]1C(=O)N[C@@H](C)C(=O)N[C@H](C(=O)NCC#N)Cc2ccc(O)c(c2)-c2cc1ccc2O [Compound 468]
MIC [1, 7]: 0.19 µg/mL (≈ 0.249 µM)
MIC [2]: 0.5 µg/mL (≈ 0.656 µM)
MIC [3, 8]: 64 µg/mL (≈ 84 µM)
IC50 [4]: 3.4 nM

From patent publication US20180327367A1, “MACROCYCLIC BROAD SPECTRUM ANTIBIOTICS” (priority 2015, published 2018)
